From the NIST ThermoML archive (doi:10.1016/j.fluid.2008.06.004)
Several values for one entry are separate records, joined by “and”; a condition that tells them apart may be missing. Equal entries are not always repeated. ± gives the expanded uncertainty stated by the source.

Experiments:
[1] = Liquid; for mass density: 298.15 K, 101.33 kPa
[2] = refractive index (Na D-line) (dimensionless); conditions: 298.15 K; 101.33 kPa; Liquid; Standard Abbe refractometry

CCC(C)=O [butanone]
Conditions	mass density [kg/m3]	refractive index
[1]	799.62 ± 0.35	–
[2]	–	1.37614 ± 0.00068

[1], Ebulliometric method (Recirculating still)
Conditions	vapor or sublimation pressure
308.22 K	18.73 ± 0.43 kPa
309.55 K	20 ± 0.4 kPa
310.48 K	20.76 ± 0.42 kPa
312.56 K	22.74 ± 0.44 kPa
313.8 K	24.01 ± 0.46 kPa
316.39 K	26.73 ± 0.47 kPa
318.16 K	28.71 ± 0.53 kPa
319.63 K	30.72 ± 0.56 kPa
321.2 K	32.71 ± 0.58 kPa
324.08 K	36.72 ± 0.6 kPa
326.86 K	40.72 ± 0.64 kPa
329.31 K	44.73 ± 0.72 kPa
331.49 K	48.73 ± 0.77 kPa
333.61 K	52.73 ± 0.8 kPa
335.64 K	56.74 ± 0.84 kPa
337.53 K	60.73 ± 0.88 kPa
339.37 K	64.72 ± 0.93 kPa
341.07 K	68.73 ± 0.98 kPa
342.7 K	72.72 ± 1 kPa
344.29 K	76.74 ± 1.1 kPa
345.74 K	80.72 ± 1.1 kPa
347.19 K	84.73 ± 1.1 kPa
348.59 K	88.73 ± 1.2 kPa
349.95 K	92.74 ± 1.2 kPa
350.49 K	94.41 ± 1.3 kPa
351.4 K	97.29 ± 1.3 kPa
352.68 K	101.32 ± 1.3 kPa and 101.3 ± 1.3 kPa
354.04 K	105.95 ± 1.4 kPa
355.29 K	110.24 ± 1.4 kPa
356.39 K	114.07 ± 1.4 kPa
357.91 K	119.51 ± 1.5 kPa
359.12 K	124.08 ± 1.5 kPa
360.32 K	128.72 ± 1.6 kPa
361.22 K	132.46 ± 1.6 kPa
362.08 K	135.91 ± 1.6 kPa

CCO [ethanol]
Conditions	mass density [kg/m3]	refractive index
[1]	786.47 ± 0.5	–
[2]	–	1.35939 ± 0.00068

[1], Ebulliometric method (Recirculating still)
Conditions	vapor or sublimation pressure [kPa]
315.41 K	20 ± 0.9
351.46 K	101.3 ± 0.9

CCCO [propan-1-ol]
Conditions	mass density [kg/m3]	refractive index
[1]	799.44 ± 0.23	–
[2]	–	1.38305 ± 0.00068

[1]
Conditions	vapor or sublimation pressure [kPa]
332.67 K	20 ± 0.9
370.21 K	101.3 ± 0.9

CC(C)O [propan-2-ol]
Conditions	mass density [kg/m3]	refractive index
[1]	780.75 ± 0.24	–
[2]	–	1.37497 ± 0.00068

[1], Ebulliometric method (Recirculating still)
Conditions	vapor or sublimation pressure [kPa]
319.8 K	20 ± 0.9
355.4 K	101.3 ± 0.9
